From PubChem BioAssay (NCI)
Values joined by “and” are separate entries in the source; they are usually repeats but may differ in a detail not shown here. Identical values can stand only once.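 These data come from cells grown in 96-well plates and exposed to compound for 48 hours at five concentrations. Here, GI50 denotes the concentration required for 50% inhibition of growth. TGI: concentration producing complete growth inhibition.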

Assays:
Test in all cases: inhibition of tumour cell growth, NCI panel, 48 h
[1] = test system: A498 renal
[2] = test system: LOX IMVI melanoma
[3] = test system: SR leukemia
[4] = test system: HCT-15 colon
[5] = test system: OVCAR-4 ovarian
[6] = test system: NCI-H23 lung
[7] = test system: MDA-MB-231 breast
[8] = test system: HCT-116 colon
[9] = test system: OVCAR-3 ovarian
[10] = test system: HL-60(TB) leukemia

SMILES	TGI [1]	TGI [2]	TGI [3]	TGI [4]	TGI [5]	TGI [6]	TGI [7]	TGI [8]	TGI [9]	TGI [10]	GI50 [1]	GI50 [2]	GI50 [3]	GI50 [4]	GI50 [5]	GI50 [6]	GI50 [7]	GI50 [8]	GI50 [10]	GI50 [9]
CC(C)(C)c1ccc(O)c(CN(Cc2cc(C(C)(C)C)ccc2O)c2ccccc2)c1	28.1 µM	26.8 µM	38.1 µM	35.8 µM	61.8 µM	40.8 µM	31.7 µM	33.9 µM	34.1 µM											
Clc1ccc(-c2c(C3=NCCCN3)nnn2-c2ccc(Cl)cc2)cc1	> 96.8 µM	53 µM	40.7 µM	> 100 µM	> 100 µM	> 100 µM	> 77.7 µM	> 75.6 µM	> 100 µM	48.1 µM										
COC(=O)C12C3C4C1C1C2C3C41NC(=O)c1csc([C@@H](C[C@H](C(C)C)N(C)C(=O)[C@@H](NC(=O)[C@H]2CCCCN2C)C2CC2)OC(C)=O)n1 (some centres undefined)	> 10.6 µM	> 33.3 µM	> 33.3 µM	> 33.3 µM	> 33.3 µM	> 33.3 µM	10.9 µM	> 33.3 µM	0.86 µM	0.00777 µM	0.116 µM	0.00882 µM	< 0.00333 µM	0.138 µM	0.5 µM	0.151 µM	0.0414 µM	0.0123 µM	0.00356 µM	0.0117 µM
Cc1ccc(NC(=O)c2sc3nc(C)c(C(O)c4ccccc4)cc3c2N)cc1 (centres undefined)	1.04 µM	19 µM	> 25.6 µM	> 73 µM	47 µM	> 100 µM	21.8 µM	12.2 µM	11.4 µM	0.909 µM	0.233 µM	0.629 µM	0.283 µM	0.397 µM	1.55 µM	0.722 µM	0.777 µM	0.381 µM	0.293 µM	0.351 µM
Cc1ccc2c(c1)CN(C(=O)CCC(=O)OCc1ccccc1)c1ccc(C)cc1CN2C(=O)CCC(=O)OCc1ccccc1	> 100 µM	> 100 µM	> 100 µM	> 100 µM	> 100 µM	> 100 µM	> 100 µM	> 100 µM	> 100 µM	> 100 µM										
CC(C)(C)c1cc(NC(=O)Cc2ccc(-c3cnc4cc(-c5cnn(CCN6CCOCC6)c5)ccc4n3)cc2)no1	0.425 µM and 0.0791 µM	50 µM and > 100 µM and > 3 µM	50 µM and > 100 µM and > 3 µM	50 µM and > 100 µM and > 3 µM	50 µM and 14.4 µM and > 1.16 µM	50 µM and > 100 µM and > 3 µM	50 µM and > 100 µM and > 2.85 µM	50 µM and > 100 µM and > 3 µM	50 µM and > 100 µM and > 3 µM	50 µM and > 100 µM and > 3 µM	0.0663 µM and 0.0152 µM	0.248 µM and 0.416 µM and 0.0821 µM	0.197 µM and 0.336 µM and 0.0938 µM	0.166 µM and 0.342 µM and 0.0517 µM	0.158 µM and 0.363 µM and 0.0439 µM	0.627 µM and 1.08 µM and 0.131 µM	0.622 µM and 0.573 µM	0.226 µM and 0.417 µM and 0.0705 µM	0.225 µM and 0.546 µM and 0.158 µM	0.482 µM and 0.675 µM and 0.105 µM
c1cc2c(ncc3cscc32)s1	> 100 µM	> 100 µM	> 100 µM	> 100 µM	> 100 µM	> 100 µM	> 100 µM	> 31.6 µM	> 100 µM	> 100 µM										
CC[CH2][Sn]([Cl])([Cl])[CH2]CC.Oc1ccccc1C=NCCN=Cc1ccccc1O	6.03 µM	28 µM	> 100 µM	24.8 µM	21 µM	20.5 µM	15.8 µM	16.3 µM	21.4 µM		2.22 µM	14.4 µM	5.45 µM	9.63 µM	8.21 µM	6.62 µM	3.96 µM	4.89 µM		9.29 µM
Cc1ccc2c3c(c(=O)[nH]c2c1)C1(C(C#N)=C(N)O3)c2cc(Br)ccc2-c2ccc(Br)cc21	3.61 µM	3.25 µM	14.5 µM	5.54 µM	3.3 µM	4.62 µM	3.6 µM	4.35 µM	4.76 µM	66.7 µM	1.44 µM	1.68 µM	2.36 µM	2.23 µM	1.72 µM	2.11 µM	1.7 µM	1.94 µM	18.8 µM	2.11 µM
Fc1ccc(-c2nn3ncccc3c2-c2ccnc(Nc3ccc4c(c3)OCCO4)n2)cc1	17.1 µM	13.7 µM	> 23.2 µM	19.4 µM	> 25 µM	> 25 µM	6.01 µM	7.09 µM	> 16.2 µM	13.8 µM	4.04 µM	3.38 µM	5.74 µM	3.59 µM	6.89 µM	6.8 µM	1.22 µM	3.05 µM	5.01 µM	2.12 µM
CON(C)C(=O)N1N=C(c2cc(F)ccc2F)SC1(CCCN)c1ccccc1 (centres undefined)	13.5 µM and 13.4 µM	17.5 µM and 16.4 µM	12.4 µM and 12.6 µM	15.9 µM and 17.6 µM	24.9 µM and 24.8 µM	21.9 µM and 14.8 µM	0.039 µM	16.1 µM and 15.2 µM	12.4 µM and 12.2 µM	5.38 µM and 2.03 µM	0.0452 µM and < 0.01 µM	0.024 µM and < 0.01 µM	< 0.01 µM	0.0485 µM and < 0.01 µM	4.27 µM and 3.37 µM	0.0936 µM and < 0.01 µM	< 0.01 µM	< 0.01 µM	0.0184 µM and < 0.01 µM	0.0298 µM and < 0.01 µM
CN1C(=O)c2ccccc2NC(=O)C12O[C@@H]2c1cccc(O)c1 (some centres undefined)	> 100 µM	> 100 µM	> 100 µM	> 100 µM	> 100 µM	> 100 µM	> 100 µM	> 100 µM	> 100 µM	> 100 µM										
O=C(/C=C\n1cnc(-c2cc(C(F)(F)F)cc(C(F)(F)F)c2)n1)NNc1cnccn1	0.338 µM	1.5 µM	> 100 µM	13.4 µM	14 µM	15.7 µM	14.8 µM	12.4 µM	4.03 µM		0.0216 µM	0.0446 µM	0.0362 µM	0.098 µM	0.0364 µM	0.0661 µM	0.0577 µM	0.0821 µM	0.0467 µM	0.0574 µM
CS(=O)(=O)c1cc(=O)c2ccccc2s1	31.4 µM	17.6 µM	8.09 µM	4.86 µM	7.8 µM	24.7 µM	31.4 µM	4.05 µM	5.27 µM	6.45 µM										
CCC(=O)c1c(C(F)(F)F)n([O-])c2ccc(C)cc2[n+]1=O		17.9 µM	> 50 µM	> 50 µM	> 50 µM	6.1 µM	37.9 µM	> 50 µM	15 µM	> 50 µM		7.47 µM	0.675 µM	3.05 µM	24 µM	1.2 µM	12.1 µM	13.8 µM	4.82 µM	3.88 µM
